This passage reports pest or weed control results from patent publication US8680012B2, “4-phenyl-pyrane-3,5-diones,4-phenyl-thiopyrane-3,6-diones and cyclohexanetriones as novel herbicides” (Syngenta Crop Protection LLC, priority 2006, dated 2014).

SMILES strings stand for the structures.

Common to all, as to format: in vivo
Assay [1] deals with Alopecurus myosuroides (ALOMY). Kind of assay: Example B pre-emergence herbicidal activity, glasshouse pot test. Particulars: 312 h, evaluated after 13 days, read-out: Pre-emergence activity ALOMY (100=total damage to plant; 0=no damage to plant); for pest or weed control at 1000 g/ha: rate 1000 g/ha; for pest or weed control at 250 g/ha: rate 250 g/ha. The procedure, abridged:
(§1)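 Spray application in 50:50 acetone/water with 0.5% Tween 20, pre-emergence at 1 day or post-emergence at 8 days after sowing. Evaluated visually at 13 days on a 0–100 damage scale.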

Assay [2] relates to Amaranthus retroflexus (AMARE). Described as above. Conditions: 312 h, evaluated after 13 days, read-out: Pre-emergence activity AMARE (100=total damage to plant; 0=no damage to plant); for pest or weed control at 1000 g/ha: rate 1000 g/ha; for pest or weed control at 250 g/ha: rate 250 g/ha. The procedure, abridged: as §1
Assay [3] relates to Avena fatua (AVEFA). The assay is described as above. Conditions: 312 h, evaluated after 13 days, read-out: Pre-emergence activity AVEFA (100=total damage to plant; 0=no damage to plant); for pest or weed control at 1000 g/ha: rate 1000 g/ha; for pest or weed control at 250 g/ha: rate 250 g/ha. The procedure, abridged: as §1
Assay [4] relates to Echinochloa crus-galli (ECHCG). The assay is described as above. Particulars: 312 h, evaluated after 13 days, read-out: Pre-emergence activity ECHCG (100=total damage to plant; 0=no damage to plant); for pest or weed control at 1000 g/ha: rate 1000 g/ha; for pest or weed control at 250 g/ha: rate 250 g/ha. In a few lines:
as §1

The test system of assay [5] is Setaria faberi (SETFA). Described as above. Conditions: 312 h, evaluated after 13 days, read-out: Pre-emergence activity SETFA (100=total damage to plant; 0=no damage to plant); for pest or weed control at 1000 g/ha: rate 1000 g/ha; for pest or weed control at 250 g/ha: rate 250 g/ha. The procedure, abridged:
as §1

Assay [6] has as its system Solanum nigrum (SOLNI). Described as above. Particulars: 312 h, evaluated after 13 days, read-out: Pre-emergence activity SOLNI (100=total damage to plant; 0=no damage to plant); for pest or weed control at 1000 g/ha: rate 1000 g/ha; for pest or weed control at 250 g/ha: rate 250 g/ha. The procedure, abridged:
as §1

For assay [7], the system named is Alopecurus myosuroides (ALOMY). Kind of assay: Example B post-emergence herbicidal activity, glasshouse pot test. Conditions: 312 h, evaluated after 13 days, read-out: Post-emergence activity ALOMY (100=total damage to plant; 0=no damage to plant); for pest or weed control at 1000 g/ha: rate 1000 g/ha; for pest or weed control at 250 g/ha: rate 250 g/ha. The procedure, abridged:
as §1

Assay [8] has as its system Amaranthus retroflexus (AMARE). The assay is described as above. Conditions: 312 h, evaluated after 13 days, read-out: Post-emergence activity AMARE (100=total damage to plant; 0=no damage to plant); for pest or weed control at 1000 g/ha: rate 1000 g/ha; for pest or weed control at 250 g/ha: rate 250 g/ha. In a few lines:
as §1

In assay [9] the test system is Avena fatua (AVEFA). The description is as above. Particulars: 312 h, evaluated after 13 days, read-out: Post-emergence activity AVEFA (100=total damage to plant; 0=no damage to plant); for pest or weed control at 1000 g/ha: rate 1000 g/ha; for pest or weed control at 250 g/ha: rate 250 g/ha. In a few lines:
as §1

Assay [10] deals with Echinochloa crus-galli (ECHCG). The description is as above. Conditions: 312 h, evaluated after 13 days, read-out: Post-emergence activity ECHCG (100=total damage to plant; 0=no damage to plant); for pest or weed control at 1000 g/ha: rate 1000 g/ha; for pest or weed control at 250 g/ha: rate 250 g/ha. The procedure, abridged:
as §1

The subject of assay [11] is Setaria faberi (SETFA). Described as above. Particulars: 312 h, evaluated after 13 days, read-out: Post-emergence activity SETFA (100=total damage to plant; 0=no damage to plant); for pest or weed control at 1000 g/ha: rate 1000 g/ha; for pest or weed control at 250 g/ha: rate 250 g/ha. In a few lines: as §1
In assay [12] the test system is Solanum nigrum (SOLNI). The assay is described as above. Conditions: 312 h, evaluated after 13 days, read-out: Post-emergence activity SOLNI (100=total damage to plant; 0=no damage to plant); for pest or weed control at 1000 g/ha: rate 1000 g/ha; for pest or weed control at 250 g/ha: rate 250 g/ha. In a few lines:
as §1

Turning to `CCc1ccc(-c2ccc(Cl)cc2)cc1C1=C(OC(=O)C2CC2)C(C)(C)OC(C)(C)C1=O` [Compound D-10], the pest or weed control at 1000 g/ha in assay [1] turned out to be 50%; in assay [2], 0%; with Avena fatua (AVEFA) [3], 0%; in assay [4] it was 100%; with Setaria faberi (SETFA) [5], 100%; with Solanum nigrum (SOLNI) [6], 0%. In addition, the pest or weed control at 1000 g/ha in assay [7] stood at 90%; in assay [8] it was 20%; with Avena fatua (AVEFA) [9], 20%; in assay [10], 100%; in the assay on Setaria faberi (SETFA) [11] it was 100%; in the assay on Solanum nigrum (SOLNI) [12] it was 0%.

`Cc1ccc(-c2ccc(Cl)cc2Cl)cc1C1=C(O)C(C)(C)C(=O)C(C)(C)C1=O` [Compound B-7]: the pest or weed control at 1000 g/ha in [1] is 0%; in assay [2], 0%; with Avena fatua (AVEFA) [3], 0%; in [4] it was 50%; with Setaria faberi (SETFA) [5] it was 60%; with Solanum nigrum (SOLNI) [6], 20%. Besides, the pest or weed control at 1000 g/ha in [7] was 20%; in assay [8] it was 70%; with Avena fatua (AVEFA) [9], 20%; in assay [10], 60%; in the assay on Setaria faberi (SETFA) [11], 70%; in the assay with Solanum nigrum (SOLNI) [12], 70%.

`CCc1ccc(-c2ccc(Cl)nc2Cl)cc1C1=C(O)C(C)(C)C(=O)C(C)(C)C1=O` [Compound B-29]: the pest or weed control at 250 g/ha amounted to 0% in [1]; 0% in assay [2]; 0% in the assay on Avena fatua (AVEFA) [3]; 20% in [4]; 30% in the assay on Setaria faberi (SETFA) [5]; 0% in the assay on Solanum nigrum (SOLNI) [6]. Also, the pest or weed control at 250 g/ha stood at 30% in [7]; 20% in assay [8]; 0% in the assay on Avena fatua (AVEFA) [9]; 100% in [10]; 80% with Setaria faberi (SETFA) [11]; 30% in the assay with Solanum nigrum (SOLNI) [12].

`CCc1ccc(-c2ccc(Cl)c(C#N)c2)cc1C1=C(O)C(C)(C)C(=O)C(C)(C)C1=O` [Compound B-27]: the pest or weed control at 250 g/ha (in [1]; in assay [2]; in the assay on Avena fatua (AVEFA) [3]; in assay [4]; in the assay with Setaria faberi (SETFA) [5]; in the assay on Solanum nigrum (SOLNI) [6]) was 0% in each case. Besides, the pest or weed control at 250 g/ha amounted to 70% in assay [7]; 0% in assay [8]; 0% in the assay with Avena fatua (AVEFA) [9]; 80% in [10]; 60% in the assay with Setaria faberi (SETFA) [11]; 0% in the assay on Solanum nigrum (SOLNI) [12].

With `Cc1ccc(-c2ccc(Cl)nc2Cl)cc1C1=C(O)C(C)(C)OC(C)(C)C1=O` [Compound A-58], the pest or weed control at 1000 g/ha in assay [1] was determined as 80%; in assay [2] it was 20%; with Avena fatua (AVEFA) [3], 60%; in [4], 100%; in the assay on Setaria faberi (SETFA) [5], 100%; in the assay with Solanum nigrum (SOLNI) [6] it was 20%. The pest or weed control at 1000 g/ha turned out to be 90% in assay [7]; 70% in [8]; 90% in the assay on Avena fatua (AVEFA) [9]; 100% in assay [10]; 90% in the assay with Setaria faberi (SETFA) [11]; 30% in the assay with Solanum nigrum (SOLNI) [12].

Consider `CCOC[C@]12CC[C@H](O1)C(=O)C(c1cc(-c3ccc(Cl)cc3)ccc1CC)=C2O` (single isomer, unassigned) [Compound A-124], for which the pest or weed control at 250 g/ha in [1] was determined as 50%; in assay [2] it was 0%; in the assay with Avena fatua (AVEFA) [3], 60%; in assay [4] it was 70%; in the assay on Setaria faberi (SETFA) [5] it was 100%; in assay [7], 80%. For the same molecule, the pest or weed control at 250 g/ha was 20% in [8], 90% in the assay on Avena fatua (AVEFA) [9], 100% in assay [10] and 100% in the assay with Setaria faberi (SETFA) [11].

As to `CCc1ccc(-c2ccc(C(F)F)cc2)cc1C1=C(O)C(C)(C)OC(C)(C)C1=O` [Compound A-147], the pest or weed control at 250 g/ha came out at 100% in [1]; 0% in [2]; 60% in the assay with Avena fatua (AVEFA) [3]; 100% in assay [4]; 70% in the assay with Setaria faberi (SETFA) [5]; 100% in [7]. Besides, the pest or weed control at 250 g/ha in assay [8] was found to be 0%; with Avena fatua (AVEFA) [9], 90%; in assay [10], 100%; with Setaria faberi (SETFA) [11] it was 70%.

On to `CCc1ccc(-c2ccc(Cl)cc2Cl)cc1C1=C(OC(=O)COC)C(C)(C)OC(C)(C)C1=O` [Compound D-24], for which the pest or weed control at 250 g/ha in [1] amounted to 0%; in assay [2], 20%; with Avena fatua (AVEFA) [3], 0%; in assay [4], 100%; in the assay on Setaria faberi (SETFA) [5], 90%; in assay [7], 0%. For the same molecule, the pest or weed control at 250 g/ha in [8] worked out at 0%; in the assay on Avena fatua (AVEFA) [9], 20%; in assay [10] it was 100%; in the assay on Setaria faberi (SETFA) [11] it was 100%.

Consider `CCc1ccc(-c2ccc(Cl)c(F)c2)cc1C1=C(O)[C@@]2(C)CC[C@H](O2)C1=O` (single isomer, unassigned) [Compound A-125], for which the pest or weed control at 250 g/ha is 70% in assay [1]; 0% in assay [2]; 80% with Avena fatua (AVEFA) [3]; 90% in [4]; 100% in the assay on Setaria faberi (SETFA) [5]; 100% in assay [7]. In addition, the pest or weed control at 250 g/ha is 0% in [8], 90% with Avena fatua (AVEFA) [9], 100% in assay [10] and 100% with Setaria faberi (SETFA) [11].

Turning to `Cc1ccc(-c2ccc(Cl)cc2F)cc1C1=C(O)C(C)(C)OC(C)(C)C1=O` [Compound A-59], the pest or weed control at 250 g/ha in [1] worked out at 30%; in assay [2], 0%; in the assay on Avena fatua (AVEFA) [3], 40%; in assay [4], 90%; in the assay with Setaria faberi (SETFA) [5], 40%; in [7] it was 30%. Besides, the pest or weed control at 250 g/ha turned out to be 0% in assay [8], 50% in the assay on Avena fatua (AVEFA) [9], 100% in assay [10] and 90% in the assay with Setaria faberi (SETFA) [11].
